By pIC50 is commonly meant the IC50 on a negative log10 scale, so that one unit is a factor of ten. By inhibition is commonly meant the change of the read-out against control, counted positive when it falls.

In assay [1] the target is MYST4(h) (Homo sapiens, UniProt Q8WYB5). Put plainly: Epigenetic enzyme assay, Histone acetyltransferases (HATs). It is filed as biochemical. Particulars: for inhibition at 10 µM: read-out: % Inhibition of Control Values.
For assay [2], the target named is T1, BAZ2A (h) bromodomain (Homo sapiens, UniProt Q9UIF9).
T1 construct: Bromodomain
T1 sequence (Q9UIF9 1793-1897 limits assumed): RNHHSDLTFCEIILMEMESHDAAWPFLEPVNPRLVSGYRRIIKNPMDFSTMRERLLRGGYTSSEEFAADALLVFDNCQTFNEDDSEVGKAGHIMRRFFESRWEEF
Kind of assay: Epigenetic binding assay, Bromodomain. Particulars: read-out: % Inhibition of Control Specific Binding.

Assay [3] concerns the target T2, FALZ (h) bromodomain (Homo sapiens, UniProt Q12830).
T2 construct: Bromodomain; Eurofins CEREP (France), contract laboratory
Kind of assay: Epigenetic binding assay, Bromodomain. To be noted: 10 μM; read-out: % Inhibition of Control Specific Binding.

Assay [4] addresses T3, FBXL10 (h) (Homo sapiens, UniProt Q8NHM5).
T3 sequence (Q8NHM5 1-1336): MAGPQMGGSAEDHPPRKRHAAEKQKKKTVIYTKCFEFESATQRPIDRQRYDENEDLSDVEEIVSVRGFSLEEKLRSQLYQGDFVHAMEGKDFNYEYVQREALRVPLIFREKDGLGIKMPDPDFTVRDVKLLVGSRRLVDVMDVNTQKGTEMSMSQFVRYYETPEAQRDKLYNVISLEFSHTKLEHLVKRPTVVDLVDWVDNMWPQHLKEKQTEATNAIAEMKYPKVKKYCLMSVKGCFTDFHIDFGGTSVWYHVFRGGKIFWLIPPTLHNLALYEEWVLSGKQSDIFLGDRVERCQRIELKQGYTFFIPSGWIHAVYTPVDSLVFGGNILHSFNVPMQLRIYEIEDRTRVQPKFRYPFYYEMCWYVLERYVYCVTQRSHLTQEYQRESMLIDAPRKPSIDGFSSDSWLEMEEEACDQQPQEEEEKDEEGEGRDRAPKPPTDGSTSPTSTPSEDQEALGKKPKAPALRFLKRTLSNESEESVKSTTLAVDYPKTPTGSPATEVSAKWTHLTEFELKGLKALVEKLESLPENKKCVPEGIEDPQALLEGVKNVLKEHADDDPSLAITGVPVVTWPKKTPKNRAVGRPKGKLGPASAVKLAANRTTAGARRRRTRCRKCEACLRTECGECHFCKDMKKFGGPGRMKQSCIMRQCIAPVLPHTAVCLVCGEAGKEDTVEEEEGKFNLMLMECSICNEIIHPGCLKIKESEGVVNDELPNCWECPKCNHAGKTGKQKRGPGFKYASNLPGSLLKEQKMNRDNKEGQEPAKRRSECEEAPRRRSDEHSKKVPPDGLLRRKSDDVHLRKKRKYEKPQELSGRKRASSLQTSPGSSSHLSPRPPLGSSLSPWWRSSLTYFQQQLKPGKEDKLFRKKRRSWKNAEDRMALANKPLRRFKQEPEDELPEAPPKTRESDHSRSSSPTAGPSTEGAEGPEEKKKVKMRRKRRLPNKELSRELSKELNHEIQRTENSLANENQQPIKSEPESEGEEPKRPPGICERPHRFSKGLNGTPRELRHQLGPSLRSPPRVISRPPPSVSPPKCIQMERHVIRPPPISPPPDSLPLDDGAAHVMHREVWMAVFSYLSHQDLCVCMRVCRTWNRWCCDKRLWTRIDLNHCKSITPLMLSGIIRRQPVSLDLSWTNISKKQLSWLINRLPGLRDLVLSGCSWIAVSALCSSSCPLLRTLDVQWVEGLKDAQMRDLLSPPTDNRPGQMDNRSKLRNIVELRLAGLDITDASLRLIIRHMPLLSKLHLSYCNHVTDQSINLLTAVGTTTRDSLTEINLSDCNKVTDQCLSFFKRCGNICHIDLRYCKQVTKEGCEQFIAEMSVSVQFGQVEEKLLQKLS
Kind of assay: Epigenetic enzyme assay, Demethylases (KDMs). It is filed as biochemical. To be noted: 10 μM; read-out: % Inhibition of Control Values.

For assay [5], the target named is PRMT1 (h) (Homo sapiens, UniProt Q99873). Put plainly: Epigenetic enzyme assay, Methyltransferases (MTs). Particulars: read-out: % Inhibition of Control Values. In kind it is biochemical.
Sequence of PRMT1 (h) (Q99873 whole entry): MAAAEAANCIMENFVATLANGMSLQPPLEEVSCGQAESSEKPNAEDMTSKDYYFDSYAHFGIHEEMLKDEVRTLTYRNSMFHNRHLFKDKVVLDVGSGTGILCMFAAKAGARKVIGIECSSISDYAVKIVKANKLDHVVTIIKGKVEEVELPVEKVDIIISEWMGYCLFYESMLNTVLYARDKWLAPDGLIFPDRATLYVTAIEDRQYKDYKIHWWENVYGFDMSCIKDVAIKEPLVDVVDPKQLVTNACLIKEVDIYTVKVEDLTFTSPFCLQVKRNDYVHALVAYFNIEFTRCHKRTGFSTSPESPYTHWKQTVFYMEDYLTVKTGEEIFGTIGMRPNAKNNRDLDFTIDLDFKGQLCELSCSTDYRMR
Assay [6] addresses T4, Phenylethanolamine N-methyltransferase (h) (Homo sapiens, UniProt P11086).
T4 sequence (P11086 1-282): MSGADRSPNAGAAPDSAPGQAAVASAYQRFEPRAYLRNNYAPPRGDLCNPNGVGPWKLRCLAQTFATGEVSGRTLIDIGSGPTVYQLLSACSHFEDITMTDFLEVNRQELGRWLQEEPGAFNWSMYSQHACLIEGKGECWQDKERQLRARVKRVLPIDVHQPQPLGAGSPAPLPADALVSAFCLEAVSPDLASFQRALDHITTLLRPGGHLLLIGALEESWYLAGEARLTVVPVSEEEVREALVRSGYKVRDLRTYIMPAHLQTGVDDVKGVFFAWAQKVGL
Kind of assay: Epigenetic enzyme assay, Small molecule methyltransferases. In kind it is biochemical. To be noted: read-out: % Inhibition of Control Values.

The target of assay [7] is T5, Myeloperoxidase (Homo sapiens, UniProt P05164).
T5 construct: Human PMN leukocytes; from tissue; host or cells: human PMN leukocytes
T5 sequence (P05164 49-745): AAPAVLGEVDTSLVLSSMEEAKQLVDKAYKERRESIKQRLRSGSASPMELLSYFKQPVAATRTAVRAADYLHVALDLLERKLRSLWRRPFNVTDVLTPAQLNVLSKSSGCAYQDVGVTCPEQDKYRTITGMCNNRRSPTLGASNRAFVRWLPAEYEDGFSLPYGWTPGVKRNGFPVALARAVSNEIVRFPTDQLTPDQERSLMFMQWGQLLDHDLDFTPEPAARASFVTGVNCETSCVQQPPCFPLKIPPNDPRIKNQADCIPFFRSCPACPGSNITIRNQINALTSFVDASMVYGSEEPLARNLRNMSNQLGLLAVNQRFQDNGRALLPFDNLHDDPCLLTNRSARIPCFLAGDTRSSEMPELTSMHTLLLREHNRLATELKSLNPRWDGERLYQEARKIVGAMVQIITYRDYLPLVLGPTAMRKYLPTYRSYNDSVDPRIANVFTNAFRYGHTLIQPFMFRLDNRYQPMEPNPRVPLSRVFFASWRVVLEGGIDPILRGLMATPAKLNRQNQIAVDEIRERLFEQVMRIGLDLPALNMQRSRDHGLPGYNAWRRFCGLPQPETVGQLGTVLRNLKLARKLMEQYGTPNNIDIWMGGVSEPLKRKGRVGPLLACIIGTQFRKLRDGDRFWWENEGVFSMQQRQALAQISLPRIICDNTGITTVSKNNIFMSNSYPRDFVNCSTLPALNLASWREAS
Put plainly: Myeloperoxidase. It is filed as biochemical. The procedure: The in vitro pharmacological studies were conducted by Eurofins PanLab (Taiwan) using the parameters shown in Table 13 with respect to appropriate literature references.

Setting [8] is: assay year 2015, read-out: % Control Response.
Setting [9] is: assay year 2014, read-out: % Control Response.

pIC50: −log10 of the molar value. Read-outs that look alike come from different tables or passages of the source.

Sequence of MYST4(h) (Q8WYB5 whole entry): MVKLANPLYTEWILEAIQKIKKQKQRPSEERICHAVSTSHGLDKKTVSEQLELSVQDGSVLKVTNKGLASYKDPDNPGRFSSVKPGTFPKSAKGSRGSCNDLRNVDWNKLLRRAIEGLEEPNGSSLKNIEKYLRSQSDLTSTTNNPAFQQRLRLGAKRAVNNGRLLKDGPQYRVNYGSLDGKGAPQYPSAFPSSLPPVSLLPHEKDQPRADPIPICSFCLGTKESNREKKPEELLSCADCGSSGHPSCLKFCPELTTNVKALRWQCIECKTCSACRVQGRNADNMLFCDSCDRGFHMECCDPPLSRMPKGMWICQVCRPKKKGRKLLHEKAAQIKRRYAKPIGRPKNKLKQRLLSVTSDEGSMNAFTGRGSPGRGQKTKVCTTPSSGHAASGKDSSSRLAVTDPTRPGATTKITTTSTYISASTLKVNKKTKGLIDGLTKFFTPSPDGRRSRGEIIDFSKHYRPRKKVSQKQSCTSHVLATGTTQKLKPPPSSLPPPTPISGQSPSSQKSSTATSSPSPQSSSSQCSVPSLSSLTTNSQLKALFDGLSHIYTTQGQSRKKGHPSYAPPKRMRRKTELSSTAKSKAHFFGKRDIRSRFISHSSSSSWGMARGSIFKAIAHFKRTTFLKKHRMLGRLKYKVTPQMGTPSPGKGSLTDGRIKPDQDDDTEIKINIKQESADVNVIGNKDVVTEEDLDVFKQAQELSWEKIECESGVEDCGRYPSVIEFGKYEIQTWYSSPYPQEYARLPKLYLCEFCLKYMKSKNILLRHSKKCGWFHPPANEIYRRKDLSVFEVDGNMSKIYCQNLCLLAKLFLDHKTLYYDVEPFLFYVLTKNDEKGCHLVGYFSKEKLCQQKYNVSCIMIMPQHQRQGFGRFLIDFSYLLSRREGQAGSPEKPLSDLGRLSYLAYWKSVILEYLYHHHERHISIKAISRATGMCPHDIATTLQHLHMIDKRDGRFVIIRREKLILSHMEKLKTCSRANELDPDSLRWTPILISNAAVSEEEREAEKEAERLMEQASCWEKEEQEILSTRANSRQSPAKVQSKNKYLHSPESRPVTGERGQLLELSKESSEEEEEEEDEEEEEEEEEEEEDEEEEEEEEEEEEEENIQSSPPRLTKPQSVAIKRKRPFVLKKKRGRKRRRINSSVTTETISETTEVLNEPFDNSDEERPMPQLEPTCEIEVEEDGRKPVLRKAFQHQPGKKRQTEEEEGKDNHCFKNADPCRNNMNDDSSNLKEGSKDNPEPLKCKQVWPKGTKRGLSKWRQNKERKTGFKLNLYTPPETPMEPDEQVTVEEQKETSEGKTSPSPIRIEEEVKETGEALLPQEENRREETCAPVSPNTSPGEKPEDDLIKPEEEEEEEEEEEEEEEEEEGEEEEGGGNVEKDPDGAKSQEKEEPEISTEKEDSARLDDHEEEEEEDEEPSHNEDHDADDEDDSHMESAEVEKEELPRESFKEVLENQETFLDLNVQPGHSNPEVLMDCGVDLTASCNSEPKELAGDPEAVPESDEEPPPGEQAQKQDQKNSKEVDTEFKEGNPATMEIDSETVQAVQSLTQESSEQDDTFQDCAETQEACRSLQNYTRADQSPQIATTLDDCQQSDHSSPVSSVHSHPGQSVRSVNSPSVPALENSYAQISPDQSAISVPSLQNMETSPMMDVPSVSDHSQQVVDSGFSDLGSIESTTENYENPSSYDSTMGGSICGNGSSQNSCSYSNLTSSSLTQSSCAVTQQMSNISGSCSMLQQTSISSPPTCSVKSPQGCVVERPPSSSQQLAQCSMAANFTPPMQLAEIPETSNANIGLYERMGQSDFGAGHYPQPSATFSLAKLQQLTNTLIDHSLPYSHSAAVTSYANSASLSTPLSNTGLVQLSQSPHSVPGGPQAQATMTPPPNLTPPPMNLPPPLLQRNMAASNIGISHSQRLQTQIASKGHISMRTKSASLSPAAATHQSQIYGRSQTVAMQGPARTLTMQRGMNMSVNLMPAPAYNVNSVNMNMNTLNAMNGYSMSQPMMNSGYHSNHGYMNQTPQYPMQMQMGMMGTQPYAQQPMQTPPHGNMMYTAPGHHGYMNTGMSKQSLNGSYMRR

As for `CC(C)=CCC[C@H](C)[C@@H]1CC[C@@H](C)c2c1cc(C)c(O)c2O` [Compound 4, 7,8-dihydroxyserrulat-14-ene], in assay [1] (Table 11, inhibition/concentration-response curve), the pIC50 is 5.38.

Consider `CC(C)=CCC[C@@H]1COc2c(C)cc(O)c3c2[C@H]1CC[C@H]3C` [Compound 3, 5,18-epoxy-8-hydroxyserrulat-14-ene], for which the inhibition at 10 µM in assay [2] was 16%; in assay [3] it was 5%; in assay [4], 22%; in assay [1] it was 71%; in assay [5] it was -1%; in assay [6], 5%. Further, in assay [7] (setting [8]), the remaining activity at 10 µM is -7%.

As to `CC(C)=CCC[C@@H]1C(O)Oc2c(C)cc(O)c3c2[C@H]1CC[C@H]3C` (stereo partly shown) [Compound 2, 5,18-epoxyserrulat-14-en-8,18-diol], the inhibition at 10 µM stood at 17% in assay [2]; 18% in assay [3]; 7% in assay [4]; 39% in assay [1]; 26% in assay [5]; 9% in assay [6]. The remaining activity at 10 µM in assay [7] (setting [9]) was 5%; in assay [7] (setting [8]) it was 1%.

On to `CC(C)=CCC[C@H](CO)[C@@H]1CC[C@@H](C)c2c1cc(C)c(O)c2O` [Compound 1, 7,8,18-trihydroxyserrulat-14-ene], for which the inhibition at 10 µM in assay [2] was found to be 56%; in assay [3], 42%; in assay [4], 37%; in assay [1] it was 25%; in assay [5], 16%; in assay [6], 23%. Besides, the “% Control Response” value in assay [7] (10 μM, assay year 2014) is recorded as “inhibited the activity”. The remaining activity at 10 µM worked out at 52% in assay [7] (setting [9]) and 27% in assay [7] (setting [8]).

These data come from patent publication US11331299B2, “Medicinal use of serrulatane diterpenes” (The University of Sydney, priority 2016, dated 2022).
